Experimental data published in patent publication US10857227B2, “Immunostimulatory compositions” (ASSISTANCE PUBLIQUE-HOPITAUX DE PARIS, priority 2015, dated 2020).
Where no end group is shown, it is not given here. [ ]: non-standard residue; d: D form. Dopa = N[C@@H](Cc1ccc(O)c(O)c1)C(=O)O

Tests used:
[1] = system: total splenocytes restimulated with MHC class-1 epitope KVPRNQDWL (human gp100); assay type: in vivo, C57-B16 mice; conditions: for CD8 immune response with various melanin precursors: 10 μg hgp100 epitope co-incubated with melanin precursor, pH 8.5 Tris, + 10 μg CpG-28, subcutaneous; for number of IFNy-secreting lymphocytes mean +/− SD: gp100 peptide 10 μg/mouse + L-Dopa 40 μg/mouse incubated 18 hours aerated, mixed with the TLR9 agonist
Description: (§1) […] After 2 immunizations, the CD8+immune response was evaluated on day 14 using a gamma interferon (IFNg)-secretion Elispot assay, after restimulation of total splenocytes with the relevant MHC class-1 epitope ([…] (SEQ ID NO: 2) for Ovalbumine or […] (SEQ ID NO: 3) for human gp100)

[2] = Solubility and stability of oxidized Dopa or Dopamine solutions; assay type: physicochemical; conditions: for precipitation under centrifugation: 2 mg/ml oxidized solution, Dopa: oxygen at pH8.5, 16 000 g for 30 minutes; for aggregates under light microscopy: 2 mg/ml solution oxidized 20 hours, with or without pOVA 0.1 mg/ml
Description: Dopa (2 mg/ml) or Dopamine (2 mg/ml) solutions were incubated with or without the pOVA (0.1 mg/ml) at pH 7.4 or 8.5, and with different oxidizing agents (O2, ammonium persulfate) for 20 hours. All solutions darkened within a few hours. […] Under centrifugation, the dopamine solutions precipitated, and some dark material remained adherent to the tubes.

[3] = system: total splenocytes restimulated with MHC class-1 epitope SIINFEKL (Ovalbumine); assay: IFNg-secretion Elispot of splenocytes after immunization, restimulation with Ovalbumine epitope; assay type: in vivo, C57-B16 mice; conditions: for CD8 immune response (IFNg spots): Ovalbumine epitope alone or mixed with 10 μg DOPA, with or without 18 hours oxygen incubation, + CpG-28; for CD8 immune response (IFNg spots) / CD8 / CTL immune response: day 14; for CD8 / CTL immune response: 1 μg peptide + 10 μg CpG-28, day 0 & day 7; for immune response, Dopamine as melanin precursor: peptides with Dopamine; for immune response after 2 immunizations, Dopa as melanin precursor: 3.6 μg peptide co-incubated 18 hours with 100 μg DOPA pH 8.5
Description: as §1

[4] = system: IFNγ-secreting lymphocytes; assay: Elispot after immunization with formulations oxidized by different agents (Example 2, Table 1); assay type: in vivo, mice; conditions: H2O2 or ammonium persulfate as oxidant
Description: (§2) C57-B16, 5-week old, mice were immunized twice (on day 1 and day 7) with the different formulations combined to a Toll-like Receptor 9 (TLR-9) agonist (10 μg of the CpG-28 oligonucleotide, […] (SEQ ID NO: 1)). After 2 immunizations, the CD8+immune response was evaluated on day 14 using a gamma interferon (IFNg)-secretion Elispot assay, after restimulation of total splenocytes with the relevant MHC class-1 epitope ([…] (SEQ ID NO: 2) for Ovalbumine or […] (SEQ ID NO: 3) for human gp100)
Other oxidizing agents such as hydrogen peroxide (H2O2) or ammonium persulfate (APS) can be used (FIG. 3).

[5] = 10 kD filtration and SDS-PAGE of melanin-EphA2 complex; assay type: physicochemical
Description: FIG. 11: SDS-PAGE (16% polyacrylamide gel) of various preparations: lane MW: molecular weight marker; lane “Ctrl EphA2”: control peptide EphA2 alone (SEQ ID NO: 9); lane “Filtrate”: filtrate of complex melanin-EphA2 after filtration on a 10 kD filter; lane “Retentate”: retentate of complex melanin-EphA2 after filtration on a 10 kD filter, resuspension, dissolution and heating in loading buffer containing SDS. (Melanin-EphA2 was obtained by co-incubating EphA2 peptide with L-Dopa (weight ration 1:10) in arerated conditions)
A solution of L-Dopa was mixed with an EPHA2 peptide ([…], SEQ ID NO: 9) at a weight ratio L-Dopa:epitope of 1:4. The mixture was then oxidized at pH 8.5 in aerated conditions.

[6] = Thin-layer chromatography of peptide and oxidized Dopa (complex formation); assay type: physicochemical; conditions: 72-hour incubation pH 8.5; hgp100 1 mg/ml, Dopa 10 mg/ml
Description: FIG. 8: Thin-layer chromatography (TLC) after a 72-hour incubation at pH 8.5 (Tris buffer). Left: hgp100 (SEQ ID NO: 3). only; middle: hgp100 (1 mg/ml) and Dopa (10 mg/ml), co-incubated with O2; right: hgp100 (1 mg/ml) added after Dopa (10 mg/ml) had been incubated with O2. […] (TLC was performed on aluminium foils, coated with a thin layer of silica gel as the stationary phase. After the samples have been loaded, a mixture of 1-Butanol/acetic acid/H2O (2/1/1) was used as the mobile phase. The TLC plates were then sprayed with ninhydrin reagent)
FIG. 9: Thin-layer chromatography (TLC) after a 72-hour incubation at pH 8.5 (Tris buffer). Left: hgp100 (, SEQ ID NO: 3) only; other lanes: hgp100 (1 mg/ml) incubated with various doses of Dopa (Dopa/hgp100 weight ratios: from 1/5 to 10/1). […] (TLC: similar conditions as FIG. 8).
In vitro experiments with Thin-layer chromatography (TLC) support the hypothesis that the incubation of the peptide while the catechol is being oxidized modifies the characteristic of the final formulation and that a complex is formed between the two entities (FIG. 8).

[7] = system: viral epitope gPr73 (SFAVATTAL); assay: CD8 immune response to viral epitope gPr73 variants co-incubated with L-Dopa; assay type: in vivo; conditions: Balb/c mice; peptide co-incubated with L-Dopa, mixed to CpG-28
Description: (§3) Adding arginines (R) or lysines (K) to the NH2-terminal end of the peptides enhanced the immune response when compared to unmodified Trp2 (animals were immunized once with formulations consisting of the peptide (10 μg/mouse) co-incubated with L-Dopa (100 μg/mouse), then mixed to CpG-28 (10 μg/mouse). The CD8 immune responses were assessed on day 8).
Similar data were obtained with a viral epitope in Balb/c mice (gPr73: SFAVATTAL, SEQ ID NO: 8). […] In both cases, if a glutamate (E) was added next to the lysine, the efficacy was reduced (Table 2).

[8] = system: MHC I epitope of Trp2 (VYDFFVWL); assay: CD8 immune response to Trp2 epitope variants co-incubated with L-Dopa; assay type: in vivo, mice; conditions: peptide 10 μg/mouse co-incubated with L-Dopa 100 μg/mouse, then mixed to CpG-28 10 μg/mouse; immunized once; day 8
Description: as §2, §3

[9] = system: anti-ovalbumine antibodies; assay: Humoral response: anti-ovalbumine antibody titers; assay type: in vivo, C57/Bml6 mice; conditions: day 14
Description: Ovalbumin protein (1 μg) was mixed to Dopa (1 μg) at pH 7.4, incubated for 4 hours with APS (0.3 μg), and injected subcutaneously with 10 μg in C57/Bml6 mice on day 0 and day 7.

[10] = 1 μg mixed to Dopa 1 μg pH 7.4, 4 hours APS 0.3 μg, subcutaneous day 0 and day 7

NC(Cc1cc(O)c(O)cc1O)C(=O)O (stereo not shown) [6-hydroxydopa, 6-Hydroxy-DOPA]
CD8 immune response with various melanin precursors ([1]; 18 hours oxygen): significant CD8 immune response

CC(C)(C)OC(=O)N[C@@H](Cc1ccc(O)c(O)c1)C(=O)O [Boc-Dopa, N-(tert-Butyloxycarbonyl)-L-dopa]
CD8 immune response with various melanin precursors ([1]; 18 hours oxygen): reduced magnitude

N[C@H](Cc1ccc(O)c(O)c1)C(=O)O [D-Dopa, D-3,4-dihydroxyphenylalanine]
CD8 immune response with various melanin precursors ([1]; 18 hours oxygen): significant CD8 immune response

NCCc1ccc(O)c(O)c1 [Dopamine]
precipitation under centrifugation [2]: precipitated | aggregates under light microscopy [2]: large aggregates were seen under light microscopy | CD8 immune response with various melanin precursors ([1]; 18 hours oxygen): reduced magnitude | CTL immune response ([3]; long OVA peptide combined to Dopamine, incubated 4 hours with APS, + 10 μg CpG-28): triggered an immune response

N[C@@H](Cc1ccc(O)c(O)c1)C(=O)O [L-Dopa, L-3,4-dihydroxyphenylalanine]
optimal molar ratio of oxidant/Dopa for vaccine efficacy [4]: around 1/4 | precipitation under centrifugation [2]: did not precipitate | aggregates under light microscopy [2]: no aggregates can be seen | filterability of the oxidized solution ([2]; incubated with oxygen at pH8.5): can be filtered through a 0.2 μm filter, but not through a 100 kDalton-cut off filter | stability of the oxidized solution ([2]; incubated with oxygen at pH8.5): stable for several weeks | CD8 immune response ([1]; 10 μg hgp100 epitope co-incubated with 100 μg DOPA pH 8.5, 18 hours oxygen, + CpG-28): significant CD8 immune response | CD8 immune response with various melanin precursors ([1]; 18 hours oxygen): significant CD8 immune response | CD8 immune response (IFNg spots) [3]: able to induce IFNg spots

Oc1cccc2cccc(O)c12 [di-hydroxynaphtalene]
CD8 immune response with various melanin precursors ([1]; 18 hours oxygen): significant CD8 immune response

D-pOVA: Ovalbumine epitope synthesized with a DOPA at the beginning of the peptide ([Dopa]SIINFEKL)
CD8 / CTL immune response [3]: strong CTL immune responses

FSHHNIIRL (also: oxidized with L-Dopa to melanin) [EPHA2 peptide]
peptide from retentate heated in loading buffer containing SDS (SDS-page) ([5]; 16% polyacrylamide gel): got dissociated from melanin | peptide in the filtrate after 10 kD filtration ([5]; peptide oxidized with L-Dopa at pH 8.5 in aerated conditions): no peptide could detected in the filtrate

KVPRNQDWL (human gp100 epitope) [hgp100]
free peptide on TLC, Dopa and peptide co-incubated with oxidizing agent [6]: not seen any more and not | free peptide on TLC, peptide added after Dopa had been oxidized [6]: Free peptide was seen | mean number of IFNγ-secreting lymphocytes +/−SD ([1]; C57BL/6 mice, gp100 10 μg/mouse, with or without L-Dopa 40 μg/mouse (18 hours aerated), combined to poly I:C 10 μg/mouse): 1+/−1 | minimal dose of the epitope required to induce CTLs ([1]; gp100-melanin formulation): 0.5 µg | IFNγ-secreting lymphocytes when combined with CpG ([1]; mixed with TLR9 agonist CpG-28, n=8 mice/group): not | CTL response, epitope added after L-Dopa had been oxidized instead of before ([1]; mouse, in vivo): a reduction in the CTL response was observed

SFAVATTAL (Viral epitope of gPr73)
number of IFNy-secreting lymphocytes mean +/− SD [7]: 5 +/− 4

SIINFEKL [pOVA]
CD8 / CTL immune response [3]: did not trigger any significant CD8 immune response | CD8 immune response (IFNg spots) [3]: did not trigger any significant CD8 immune response | amount of epitope sufficient to detect an immune response ([3]; epitope with DOPA model, data not shown): ≤ 10 ng

SMLVLLPDEVSGLEQLESIINFEKLTEWTS (long OVA peptide) [SEQ ID NO:4]
immune response, Dopamine as melanin precursor [3]: highest immune response

SMLVLLPKKVSGLKQLESIINFEKLTKWTS (positive long OVA peptide) [SEQ ID NO: 6, long OVA peptide modified to be positively charged]
immune response after 2 immunizations, Dopa as melanin precursor ([3]; + 10 μg CpG-28): strong | immune response, Dopamine as melanin precursor [3]: lowest one

SMLVLLPKSVSGLSQLESIINFEKLTSWTS (neutral long OVA peptide) [SEQ ID NO: 5, long OVA peptide modified to be neutral]
immune response after 2 immunizations, Dopa as melanin precursor ([3]; + 10 μg CpG-28): intermediate | immune response, Dopamine as melanin precursor [3]: intermediate

TAAACGTTATAACGTTACGACGTCAT (listed as DNA, chemistry not given here) [CpG-28]
immune responses, adjuvant added before versus after oxidation ([1]; L-DOPA 100 μg + hgp100 epitope, 18 hours oxygen): similar | number of IFNy-secreting lymphocytes mean +/− SD [1]: 211 +/− 83

TCCATGACGTTCCTGACGTT [compound 1826]
number of IFNy-secreting lymphocytes mean +/− SD [1]: 134 +/− 54

TGACTGTGAACGTTCGAGATGA [ISS]
number of IFNy-secreting lymphocytes mean +/− SD [1]: 147 +/− 63

VYDFFVWL (MHC I epitope of Trp2)
number of IFNy-secreting lymphocytes mean +/− SD [8]: 30 +/− 34

pOVA-D: Ovalbumine epitope synthesized with a DOPA at the end of the peptide (SIINFEKL[Dopa])
CD8 / CTL immune response [3]: strong CTL immune responses

B1: Ovalbumin protein: Ovalbumin protein mixed to Dopa at pH 7.4 and incubated with APS (composition melanin/antigen) (protein)
chain: GSIGAASMEFCFDVFKELKVHHANENIFYCPIAIMSALAMVYLGAKDSTRTQINKVVRFDKLPGFGDSIEAQCGTSVNVHSSLRDILNQITKPNDVYSFSLASRLYAEERYPILPEYLQCVKELYRGGLEPINFQTAADQARELINSWVESQTNGIIRNVLQPSSVDSQTAMVLVNAIVFKGLWEKAFKDEDTQAMPFRVTEQESKPVQMMYQIGLFRVASMASEKMKILELPFASGTMSMLVLLPDEVSGLEQLESIINFEKLTEWTSSNVMEERKIKVYLPRMKMEEKYNLTSVLMAMGITDVFSSSANLSGISSAESLKISQAVHAAHAEINEAGREVVGSAEAGVDAASVSEEFRADHPFLFCIKHIATNAVLFFGRCVSP
titer of anti-ovalbumine antibodies IgG1 [9, 10]: 1/8000 | titer of anti-ovalbumine antibodies IgG2b [9, 10]: 1/5250 | type of immune response (IgG subtypes) [9]: mixed Th1 and Th2 immune response
